By IC50 is commonly meant the concentration that gives 50% inhibition.

The values that follow come from patent publication US9006238B2, “Pyrazolo pyridine derivatives as NADPH oxidase inhibitors” (Genkyotex SA, priority 2008, dated 2015).

The target of the assay is T1, NOX (Homo sapiens, UniProt P04839).
T1 construct: HL60 differentiation to the neutrophil phenotype was triggered by adding Me2SO; endogenous in cells; host or cells: HL-60 cells differentiated with DMSO (1.25% v/v, 6 days) to the neutrophil phenotype
T1 sequence (P04839 1-570): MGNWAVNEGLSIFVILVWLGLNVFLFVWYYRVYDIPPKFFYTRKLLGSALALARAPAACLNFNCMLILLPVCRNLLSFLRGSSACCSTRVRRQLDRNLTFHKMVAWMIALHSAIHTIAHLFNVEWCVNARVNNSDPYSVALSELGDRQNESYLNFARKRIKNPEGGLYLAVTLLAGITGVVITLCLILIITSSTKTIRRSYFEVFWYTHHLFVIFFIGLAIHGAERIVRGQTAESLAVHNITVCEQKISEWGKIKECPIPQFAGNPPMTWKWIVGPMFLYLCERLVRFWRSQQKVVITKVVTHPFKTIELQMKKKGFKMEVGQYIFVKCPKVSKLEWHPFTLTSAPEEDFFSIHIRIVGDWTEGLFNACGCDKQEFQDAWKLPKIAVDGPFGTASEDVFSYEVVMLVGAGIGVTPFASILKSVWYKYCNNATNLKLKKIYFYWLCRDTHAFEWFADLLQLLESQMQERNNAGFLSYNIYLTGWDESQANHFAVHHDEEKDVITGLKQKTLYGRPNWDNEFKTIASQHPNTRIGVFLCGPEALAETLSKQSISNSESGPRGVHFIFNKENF
T1 sequence (P13498 1-195 partner): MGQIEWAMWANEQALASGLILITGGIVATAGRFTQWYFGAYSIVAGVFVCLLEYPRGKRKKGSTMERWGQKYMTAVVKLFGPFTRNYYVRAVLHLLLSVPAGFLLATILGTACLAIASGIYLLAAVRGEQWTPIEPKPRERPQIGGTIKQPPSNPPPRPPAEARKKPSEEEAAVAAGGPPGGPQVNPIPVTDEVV
In words: Amplex Red measurement of extracellular hydrogen peroxide (NOX activity) using DMSO-differentiated HL60 cells. The assay is classed as cell-based. To be noted: DMSO-differentiated HL60 cells; for Inhibition (%) of NOX activity: test concentration not given. The method, then: The activity of the compounds according to the invention may be tested for their activity in the inhibition or reduction of formation of reactive oxygen species (ROS) from oxygen in cells. The activity of the compounds is tested in the following cell cultures by different techniques such as nitroblue tetrazolium, Amplex Red, Chemiluminescence (Luminol) and 2′,7′-dichlorodihydrofluorescein diacetate (H2DCF-DA) according to the protocols detailed below.
Human acute myeloid leukemia cell line HL-60 was cultured in RPMI 1640 (Invitrogen) supplemented with 10% heat-inactivated calf serum, 2 mM glutamine, 100 U/mL penicillin (Sigma), and 100 μg streptomycin (Sigma) at 37° C. under a humidified atmosphere of 5% CO2. HL60 differentiation to the neutrophil phenotype was triggered by adding Me2SO (final concentration 1.25% v/v for 6 days) to the culture medium.
Extracellular hydrogen peroxide was measured using Amplex UltraRed (Molecular Probes). Cells were trypsinized (1× Trypsin-EDTA), collected by centrifugation, and resuspended in HBSS supplemented with 1% glucose. Cells were seeded into black 96-well plates at a density of 50,000 cells in 200 μl testing buffer (HBSS 1% glucose containing 0.005 U/mL horseradish peroxidase (Roche) and 50 μM Amplex Red in the presence or absence of compounds according to the invention. As a control, DPI was included at a final concentration of 10 μM The plates were placed in the fluorescent Optima Fluorescent plate reader and kept at 37° C. during 20 min. Fluorescence was measured for […] with excitation and emission wavelengths of 544 nm and 590 nm respectively. NOX activities were expressed as % of the activity in control cells. Residual activity of DPI-treated cells was usually <10%.
The Table 2 below summarizes the percentage of inhibition of NOX activity as measured by Amplex Red using DMSO-differentiated HL60 cells as described above:
The Table 3 below summarizes the IC50 of NOX activity as measured by Amplex Red using DMSO-differentiated HL60 cells as described above: […]

A value given as a limit tells only on which side of the number the result lay.

Take `COCCn1[nH]c2cc(=O)n(CCOC)c(CCCOc3ccccc3)c2c1=O` [Compound 94, 2,5-bis(2-methoxyethyl)-4-(3-phenoxypropyl)-1H-pyrazolo[4,3-c]pyridine-3,6 (2H,5H)-dione]: the IC50 is < 5 µM and the “Inhibition (%) of NOX activity” value stood at 90%. On the same counts, the results for `Cc1c2c(=O)n(CCN3CCOCC3)[nH]c2cc(=O)n1Cc1ccc(Cl)cc1` [Compound 10, 5-(4-Chlorobenzyl)-4-Methyl-2-(2-Morpholin-4-Ylethyl)-1H-Pyrazolo[4,3-c]Pyridine-3,6(2H,5H)-Dione] are < 5 µM and 77%. Regarding `Cn1[nH]c2cc(=O)n(CC3CN(Cc4ccccc4)CCO3)c(-c3ccc(Cl)cc3)c2c1=O` (stereo not shown) [Compound 97, 5-[(4-benzylmorpholin-2-yl)methyl]-4-(4-chlorophenyl)-2-methyl-1H-pyrazolo[4,3-c] pyridine-3,6(2H,5H)-dione], the “Inhibition (%) of NOX activity” value is reported as 89%.

Take `Cc1c2c(=O)n(Cc3ccccc3)[nH]c2cc(=O)n1-c1cccc(OC(F)(F)F)c1` [Compound 3, 2-Benzyl-4-Methyl-5-[3-(Trifluoromethoxy)Phenyl]-1H-Pyrazolo[4,3-c]Pyridine-3,6(2H,5H)-Dione]: the IC50 was < 5 µM and the “Inhibition (%) of NOX activity” value worked out at 63%.

`CC(=O)N1CCC(Cn2c(-c3ccc(Cl)cc3)c3c(=O)n(C)[nH]c3cc2=O)CC1` [Compound 98]: the “Inhibition (%) of NOX activity” value was 92%. `COCCn1[nH]c2cc(=O)n(CC(=O)N3CCN(Cc4ccccc4)CC3)c(C)c2c1=O` [Compound 35, 5-[2-(4-benzylpiperazin-1-yl)-2-oxoethyl]-2-(2-methoxyethyl)-4-methyl-1H-pyrazolo [4,3-c]pyridine-3,6(2H,5H)-dione]: the IC50 was < 5 µM and the “Inhibition (%) of NOX activity” value was determined as 72%.

Turning to `CCCCc1c2c(=O)n(C)[nH]c2cc(=O)n1Cc1ccc(Cl)cc1` [Compound 8, 4-Butyl-5-(4-Chlorobenzyl)-2-Methyl-1H-Pyrazolo[4,3-c]Pyridine-3,6(2H,5H)-Dione], the IC50 was < 5 µM and the “Inhibition (%) of NOX activity” value is given as 79%. As for `Cc1c2c(=O)n(Cc3ccc(Cl)cc3)[nH]c2cc(=O)n1Cc1ccccn1` [Compound 2, 2-(4-Chlorobenzyl)-4-Methyl-5-(Pyridin-2-Ylmethyl)-1H-Pyrazolo[4,3-c]Pyridine-3,6(2H,5H)-Dione], the IC50 is < 5 µM and the “Inhibition (%) of NOX activity” value is 61%.

With `COc1cccc(Cc2c3c(=O)n(Cc4ccccc4)[nH]c3cc(=O)n2Cc2ccccn2)c1` [Compound 21, 2-benzyl-4-(3-methoxybenzyl)-5-(pyridin-2-ylmethyl)-1H-pyrazolo[4,3-c] pyridine-3,6(2H,5H)-dione], the IC50 was < 5 µM and the “Inhibition (%) of NOX activity” value was 74%.

On to `Cc1c2c(=O)n(C3CCCCC3)[nH]c2cc(=O)n1Cc1ccccc1CN1CCOCC1` [Compound 13, 2-Cyclohexyl-4-Methyl-5-[2-(Morpholin-4-Ylmethyl)Benzyl]-1H-Pyrazolo[4,3-c]Pyridine-3,6(2H,5H)-Dione], for which the concentration for half-maximal inhibition (IC50) was < 5 µM and the “Inhibition (%) of NOX activity” value came out at 56%.

For the molecule `Cn1[nH]c2cc(=O)n(CC3CNC(=O)C3)c(-c3ccc(Cl)cc3)c2c1=O` (stereo not shown) [Compound 100, 4-(4-chlorophenyl)-2-methyl-5-[(5-oxopyrrolidin-3-yl)methyl]-1H-pyrazolo[4,3-c] pyridine-3,6(2H,5H)-dione], the “Inhibition (%) of NOX activity” value is recorded as 90%.

For `Cc1c2c(=O)n(C)[nH]c2cc(=O)n1Cc1ccco1` [Compound 6, 5-(Furan-2-Ylmethyl)-2,4-Dimethyl-1H-Pyrazolo[4,3-c]Pyridine-3,6(2H,5H)-Dione], the half-maximal inhibitory concentration (IC50) was < 5 µM and the “Inhibition (%) of NOX activity” value amounted to 74%. On the same counts, the results for `Cn1c(COc2ccc(F)cc2)c2c(=O)n(CCN3CCOCC3)[nH]c2cc1=O` [Compound 86, 4-[(4-fluorophenoxy)methyl]-5-methyl-2-(2-morpholin-4-ylethyl)-1H-pyrazolo[4,3-c] pyridine-3,6(2H,5H)-dione] are < 5 µM and 87%. As to `O=c1c2c(COc3ccc(F)cc3)n(Cc3ccc(Cl)cc3)c(=O)cc2[nH]n1CCN1CCOCC1` [Compound 51, 5-(4-chlorobenzyl)-4-[(4-fluorophenoxy)methyl]-2-(2-morpholin-4-ylethyl)-1H-pyrazolo[4,3-c]pyridine-3,6 (2H,5H)-dione], the IC50 is < 5 µM and the “Inhibition (%) of NOX activity” value is on record as 76%. Consider `CCOCCCn1c(COCc2ccccc2)c2c(=O)n(CCN3CCOCC3)[nH]c2cc1=O` [Compound 89, 4-[(benzyloxy)methyl]-5-(3-ethoxypropyl)-2-(2-morpholin-4-ylethyl)-1H-pyrazolo[4,3-c]pyridine-3,6 (2H,5H)-dione], for which the IC50 was < 5 µM and the “Inhibition (%) of NOX activity” value was 86%. On the same counts, the results for `COCCn1[nH]c2cc(=O)n(CCc3ccccn3)c(C)c2c1=O` [Compound 15, 2-(2-Methoxyethyl)-4-Methyl-5-(2-Pyridin-2-Ylethyl)-1H-Pyrazolo[4,3-c]Pyridine-3,6(2H,5H)-Dione] are < 5 µM and 72%.

With `COCCn1[nH]c2cc(=O)n(-c3cccc(NC(C)=O)c3)c(C)c2c1=O` [Compound 19, N-{3-[2-(2-methoxyethyl)-4-methyl-3,6-dioxo-1,2,3,6-tetrahydro-5H-pyrazolo[4,3-c]pyridin-5-yl]phenyl} acetamide], the IC50 is < 5 µM and the “Inhibition (%) of NOX activity” value amounted to 73%. The corresponding values for `COCCn1c(CCCOc2ccccc2)c2c(=O)n(CCN3CCOCC3)[nH]c2cc1=O` [Compound 74, 5-(2-methoxyethyl)-2-(2-morpholin-4-ylethyl)-4-(3-phenoxypropyl)-1H-pyrazolo[4,3-c]pyridine-3,6 (2H,5H)-dione] are < 5 µM and 95%.

In the case of `COCCn1[nH]c2cc(=O)n(C)c(-c3ccc(Cl)cc3)c2c1=O` [Compound 77, 4-(4-chlorophenyl)-2-(2-methoxyethyl)-5-methyl-1H-pyrazolo[4,3-c]pyridine-3,6 (2H,5H)-dione], the IC50 is < 5 µM and the “Inhibition (%) of NOX activity” value was 90%.

Consider `Cc1c2c(=O)n(CC(C)C)[nH]c2cc(=O)n1Cc1cccnc1` [Compound 44, 4-methyl-2-(2-methylpropyl)-5-(pyridin-3-ylmethyl)-1H-pyrazolo[4,3-c]pyridine-3,6 (2H,5H)-dione], for which the 50% inhibitory concentration (IC50) is < 5 µM and the “Inhibition (%) of NOX activity” value was found to be 78%. The corresponding values for `Cc1c2c(=O)n(CCOc3ccc(Cl)cc3)[nH]c2cc(=O)n1Cc1ccccn1` [Compound 24, 2-[2-(4-chlorophenoxy)ethyl] 4-methyl-5-(pyridin-2-ylmethyl)-1H-pyrazolo[4,3-c] pyridine-3,6(2H,5H)-dione] are < 5 µM and 79%. With `CC(=O)Nc1cccc(Cn2c(C)c3c(=O)n(CCc4ccccc4)[nH]c3cc2=O)c1` [Compound 28, N-(3-{[4-methyl-3,6-dioxo-2-(2-phenylethyl)-1,2,3,6-tetrahydro-5H-pyrazolo[4,3-c]pyridin-5-yl]methyl}phenyl) acetamide], the half-inhibitory concentration (IC50) was < 5 µM and the “Inhibition (%) of NOX activity” value was determined as 78%. Regarding `COCCn1[nH]c2cc(=O)n(CC(=O)N3CCOCC3)c(C)c2c1=O` [Compound 20], the IC50 is < 5 µM and the “Inhibition (%) of NOX activity” value is 75%.
